Results on 2 compounds are retold here after patent US12220550B2, “Transdermal delivery device, methods of using and making the same” (BUDDHIST TZU CHI MEDICAL FOUNDATION, priority 2021, dated 2025).

The nature of the series: In vitro drug release from drug-loaded MNs. Type of series: physicochemical. The following applies: from IPN hydrogel MNs, PBS pH 7.4, 37° C., 100 rpm, first 24 hours.

Experimental: The drug-loaded MNs were soaked in 10 mL of PBS solution (pH 7.4) and put in a shaking incubator at 37° C. and 100 rpm to simulate the real drug release environment. About 2.5 mL of the release medium was withdrawn and replenished with an equivalent volume of PBS every half hour for the first 4 hours. Similarly, the released medium was collected at the 5th, 6th, 8th, 12th, and 24th hour followed by every 24 h for 7 days. Then, the cumulative drug released was determined by measuring the UV-Vis absorbance of DOX and LPS at 485 nm and 256 nm, respectively, and then calculated using the standard calibration curve of the free drugs, as shown in FIGS. 14A and B.
Drug release behavior of IPN hydrogel was examined. First, DOX and/or LPS were loaded into the hydrogel by simple mixing with IPN hydrogel pre-gel solution (0.5 mg DOX/MNs and 0.2 mg LPS/MNs) followed by casting MNs and sequential photo-ionic crosslinking to obtained drug loaded solid MNs arrays (DOX loaded MN, LPS loaded MN and LPS/DOX loaded MN). Then, drug loaded MNs were immersed in 10 mL PBS solution and kept in an orbital shaker incubator with a rotation of 100 rpm at 37° C.

Turning to `COc1cccc2c1C(=O)c1c(O)c3c(c(O)c1C2=O)C[C@@](O)(C(=O)CO)C[C@@H]3O[C@H]1C[C@H](N)[C@H](O)[C@H](C)O1` [DOX, doxorubicin], the cumulative drug release was approximately 66.1±7.4%. In turn, lipopolysaccharide [LPS] had a cumulative drug release of approximately 59.4±5.5%.
